# Results published in PubChem BioAssay AID1259407 (Chemical Carcinogenesis Research Information System (CCRIS), 2018).
# Active and inactive are the calls of the source. No rule for the calls is given here.
# Test system: CCRIS mutagenicity, Ames/micronucleus/aberration tests
# Assay: CCRIS mutagenicity studies
smiles,measurement,setting,value
COc1cc(CNC(=O)CCCC/C=C/C(C)C)ccc1O,mutagenic call,"End Point: IN VITRO CHROMOSOMAL ABERRATIONS, Test System: HUMAN LYMPHOCYTES, Metabolic Activation: NONE",inactive; negative
same,mutagenic call,"End Point: IN VITRO CHROMOSOMAL ABERRATIONS, Test System: HUMAN LYMPHOCYTES, Metabolic Activation: RAT LIVER S-9, AROCLOR 1254",inactive; negative
same,mutagenic call,"End Point: IN VITRO CHROMOSOMAL ABERRATIONS, Test System: HUMAN LYMPHOCYTES, Metabolic Activation: S-9",inactive; negative
same,mutagenic call,"End Point: IN VITRO CHROMOSOMAL ABERRATIONS, Test System: HUMAN PERIPHERAL BLOOD LYMPHOCYTES, Metabolic Activation: NONE",inactive; negative
same,mutagenic call,"End Point: IN VITRO CHROMOSOMAL ABERRATIONS, Test System: HUMAN PERIPHERAL BLOOD LYMPHOCYTES, Metabolic Activation: RAT, LIVER, S-9, AROCLOR 1254",inactive; negative
same,mutagenic call,"End Point: IN VIVO MICRONUCLEUS, Test System: BONE MARROW ERYTHROCYTES, Species: MOUSE, Strain/Sex: CD-1/FEMALE, Route: GAVAGE",inactive; negative
same,mutagenic call,"End Point: IN VIVO MICRONUCLEUS, Test System: BONE MARROW ERYTHROCYTES, Species: MOUSE, Strain/Sex: CD-1/MALE, Route: GAVAGE",inactive; negative
same,mutagenic call,"End Point: IN VIVO MICRONUCLEUS, Test System: BONE MARROW POLYCHROMATIC ERYTHROCYTES, Species: MOUSE, Strain/Sex: CD-1/MALE, FEMALE, Route: GAVAGE",inactive; negative
same,mutagenic call,"Test System: AMES SALMONELLA TYPHIMURIUM, Strain/Indicator: TA97, Metabolic Activation: NONE, Method: PREINCUBATION (20 MIN)",inactive; negative
same,mutagenic call,"Test System: AMES SALMONELLA TYPHIMURIUM, Strain/Indicator: TA97, Metabolic Activation: S-9, Method: PREINCUBATION (20 MIN)",inactive; negative
same,mutagenic call,"Test System: AMES SALMONELLA TYPHIMURIUM, Strain/Indicator: TA98, Metabolic Activation: HAMSTER, LIVER, S-9, AROCLOR 1254, Method: STANDARD PLATE",inactive; negative
same,mutagenic call,"Test System: AMES SALMONELLA TYPHIMURIUM, Strain/Indicator: TA98, Metabolic Activation: NONE, Method: DIRECT PLATE",inactive; negative
same,mutagenic call,"Test System: AMES SALMONELLA TYPHIMURIUM, Strain/Indicator: TA98, Metabolic Activation: NONE, Method: PREINCUBATION",inactive; negative
same,mutagenic call,"Test System: AMES SALMONELLA TYPHIMURIUM, Strain/Indicator: TA98, Metabolic Activation: NONE, Method: PREINCUBATION (20 MIN)",inactive; negative
same,mutagenic call,"Test System: AMES SALMONELLA TYPHIMURIUM, Strain/Indicator: TA98, Metabolic Activation: RAT LIVER S-9, AROCLOR 1254, Method: PREINCUBATION",inactive; negative
same,mutagenic call,"Test System: AMES SALMONELLA TYPHIMURIUM, Strain/Indicator: TA98, Metabolic Activation: RAT LIVER S-9, AROCLOR 1254, Method: STANDARD PLATE",inactive; negative
same,mutagenic call,"Test System: AMES SALMONELLA TYPHIMURIUM, Strain/Indicator: TA98, Metabolic Activation: RAT, LIVER, S-9, AROCLOR 1254, Method: DIRECT PLATE",inactive; negative
same,mutagenic call,"Test System: AMES SALMONELLA TYPHIMURIUM, Strain/Indicator: TA98, Metabolic Activation: RAT, LIVER, S-9, AROCLOR 1254, Method: PREINCUBATION",inactive; negative
same,mutagenic call,"Test System: AMES SALMONELLA TYPHIMURIUM, Strain/Indicator: TA98, Metabolic Activation: RAT, LIVER, S-9, AROCLOR, Method: STANDARD PLATE",active; positive
same,mutagenic call,"Test System: AMES SALMONELLA TYPHIMURIUM, Strain/Indicator: TA98, Metabolic Activation: S-9, Method: PREINCUBATION (20 MIN)",inactive; negative
same,mutagenic call,"Test System: AMES SALMONELLA TYPHIMURIUM, Strain/Indicator: TA100, Metabolic Activation: HAMSTER, LIVER, S-9, AROCLOR 1254, Method: STANDARD PLATE",inactive; negative
same,mutagenic call,"Test System: AMES SALMONELLA TYPHIMURIUM, Strain/Indicator: TA100, Metabolic Activation: NONE, Method: DIRECT PLATE",inactive; negative
same,mutagenic call,"Test System: AMES SALMONELLA TYPHIMURIUM, Strain/Indicator: TA100, Metabolic Activation: NONE, Method: PREINCUBATION",inactive; negative
same,mutagenic call,"Test System: AMES SALMONELLA TYPHIMURIUM, Strain/Indicator: TA100, Metabolic Activation: NONE, Method: STANDARD PLATE",inactive; negative
same,mutagenic call,"Test System: AMES SALMONELLA TYPHIMURIUM, Strain/Indicator: TA100, Metabolic Activation: RAT LIVER S-9, AROCLOR 1254, Method: PREINCUBATION",inactive; negative
same,mutagenic call,"Test System: AMES SALMONELLA TYPHIMURIUM, Strain/Indicator: TA100, Metabolic Activation: RAT LIVER S-9, AROCLOR 1254, Method: STANDARD PLATE",inactive; negative
same,mutagenic call,"Test System: AMES SALMONELLA TYPHIMURIUM, Strain/Indicator: TA100, Metabolic Activation: RAT, LIVER, S-9, AROCLOR 1254, Method: DIRECT PLATE",inactive; negative
same,mutagenic call,"Test System: AMES SALMONELLA TYPHIMURIUM, Strain/Indicator: TA100, Metabolic Activation: RAT, LIVER, S-9, AROCLOR 1254, Method: PREINCUBATION",inactive; negative
same,mutagenic call,"Test System: AMES SALMONELLA TYPHIMURIUM, Strain/Indicator: TA100, Metabolic Activation: S-9 (0.25 ML), Method: PREINCUBATION (20 MIN)",inactive; negative
same,mutagenic call,"Test System: AMES SALMONELLA TYPHIMURIUM, Strain/Indicator: TA100, Metabolic Activation: S-9 (0.5 ML), Method: PREINCUBATION (60 MIN)",inactive; negative
same,mutagenic call,"Test System: AMES SALMONELLA TYPHIMURIUM, Strain/Indicator: TA1535, Metabolic Activation: HAMSTER, LIVER, S-9, AROCLOR 1254, Method: STANDARD PLATE",inactive; negative
